These results are taken from PMC10992699, “Comparative structure activity and target exploration of 1,2-diphenylethynes in Haemonchus contortus and Caenorhabditis elegans” (International Journal for Parasitology: Drugs and Drug …, 2024).

A short description of data set [1]: HepG2 cytotoxicity (CellTiter-Glo). Type of data set: cell-based. The conditions noted are these: human, HepG2 cells, read-out: half-maximal cytotoxic concentration (CC50). As to the method: The cytotoxicity of UMW-9729 and six key derivatives (12, 14, 15, 16, 18 and 25) on human hepatoma (HepG2) cells was evaluated as described previously ([Gilson et al., 2017]). In short, HepG2 cells were first cultured (in an incubator at 5 % (v/v) CO2, 37 °C, >90 % humidity) in Dulbecco's modified Eagle's medium (DMEM) supplemented with 5 % foetal bovine serum (FBS). Test compounds were serially-diluted (10-points, 2-fold serial dilution, top concentration of 50 μM) in DMEM + 10 % FBS, adjusted to a 0.5 % DMSO concentration and arrayed across a 384-well plate. Bortezomib (10 μM) was used as a positive control; 0.5 % DMSO was used as a negative control. HepG2 cells (1 × 10^3 cells per 50 μL of DMEM + 10 % FBS) were then seeded into wells of the assay plate; plates were the incubated (5 % (v/v) CO2, 37 °C, >90 % humidity) for 48 h. Cell proliferation was subsequently determined using CellTiter-Glo (Promega) and normalised using the negative-controls to calculate as a percentage. All compounds were tested in duplicate. The half-maximal cytotoxic (CC50) values were calculated by the Dotmatics (v.5.3) and Spotfire (v.7.11.1) software using a nonlinear regression four-parameter fit analysis.
In general terms: Cellular ATP, detected with luciferase, serves as a proxy for viable cell number.

For a further data set, the system named is C. elegans young adults. Put plainly: C. elegans young adult motility dose-response assay. The note with it: Caenorhabditis elegans, 40 h, young adults; 40 h incubation; three independent assays in triplicate; read-out: Worm motility IC50 ± SD, C. elegans young adults. Type of data set: cell-based, Caenorhabditis elegans. As to the method: The eggs were then washed five times with 15 mL of sterile M9 buffer (centrifugation at 500×g, 2 min). […] were collected from plates and washed twice with sterile M9 buffer by centrifugation (500×g, 2 min) to remove E. coli OP50, and then resuspended to a concentration of 100 larvae per 50 μL in sterile (autoclaved) LB*. The dose-response assay for C. elegans followed a well-established protocol ([Taki et al., 2021a]) and was employed to evaluate the potency of hit compounds against this nematode. […] Two compounds, monepantel (ZolvixTM; Elanco, Australia) and moxidectin ([…], France) were used as positive controls and prepared in the same manner as the test compounds. […] The test compounds and positive control compounds were arrayed in triplicate across individual flat-bottom 96-well microplates (cat. no. 3596; Corning, Corning, NY, USA), with six wells on each plate containing the negative control. Added to each well were 100 C. elegans in 50 μL of LB* to give a final volume of 100 μL. Plates were then placed in an incubator ([…], model no. IMP180, Thermo Fisher Scientific, USA) at 20 °C for 40 h. […] Over 15 min, disturbance of an infrared beam in individual wells was recorded as an 'activity count'. Raw 'activity counts' for each well were normalised to the negative controls. The compound concentrations were log10-transformed and fitted using a variable slope four-parameter equation, using the ordinary least squares fit model, employing the program Prism (v.9.1.0 GraphPad Software, San Diego, CA, USA).

The next data set has as its target T1, UBL-5 (Caenorhabditis elegans, UniProt P91302).
T1 construct: from tissue; host or cells: whole-worm lysate of C. elegans N2 (young adults / L4s)
Put plainly: Thermal proteome profiling (TPP). The class given is binding. The note with it: compound 50 μM, C. elegans lysate, 37-67 °C.

The subject of data set [2] is human hepatoma (HepG2) cells. Kind of data set: HepG2 mitotoxicity (galactose medium, crystal violet staining). The conditions noted are these: 48 h. Type of data set: cell-based. As to the method:
The mitotoxicity of UMW-9729 and six key derivatives (12, 14, 15, 16, 18 and 25) on human hepatoma (HepG2) cells was evaluated as described previously using an established protocol ([Swiss and Will, 2011]; [Kamalian et al., 2015]; [Śliwka et al., 2016]). Test compounds were serially-diluted (7-points, 2-fold serial dilution, 50 μM top concentration) in DMEM (Thermo Fisher Scientific, USA) with GlutaMax™ supplemented with 25 mM D-galactose, 10 % heat-inactivated FBS, 100 IU/mL of penicillin, 100 μg/mL of streptomycin and 0.25 μg/mL of amphotericin B (denoted DMEM*). Monepantel and moxidectin (prepared in the same manner as the test compounds) were included as reference compounds. M-666 ([…]; [Le et al., 2018]) was used as a positive control; 0.25 % DMSO was used as a negative control. HepG2 cells were seeded into wells of a 96-well plate in 80 μL of DMEM* (at 1 × 10^5 cells per well) and allowed to adhere for 16 h (5 % (v/v) CO2, 37 °C, >90% humidity)prior to incubation with individual compounds, at a final volume of 100 μL. […] Following 48 h of incubation with compounds, cell viability was determined by crystal violet staining ([Śliwka et al., 2016]). The absorbance (595 nm) of treated cells was normalised using the negative-controls to calculate the cell viability. […]

T1 sequence (P91302 whole entry): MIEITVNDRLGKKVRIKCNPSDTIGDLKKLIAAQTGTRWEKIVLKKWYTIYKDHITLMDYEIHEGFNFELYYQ

With `C(#Cc1ccc(-c2ccn[nH]2)cc1)c1ccccc1` [UMW-9729], in data set [1], the CC50 at 48 h was above 40 µM. For the same molecule, the IC50 in the data set with C. elegans young adults amounted to 14 ± 2.9 µM. Moreover, on UBL-5 (NPARC), the F-statistic amounted to 34.8. The “thermal stability of protein in the presence of compound” value at UBL-5 is “stabilised”. In data set [2], the “half-maximal mitotoxic concentration (MC50)” value was above 40 µM.

The IC50 is the concentration at which inhibition is half-maximal.
